Experimental data: patent US6649355B2, “Lipoxygenase proteins and nucleic acids” (priority 1998, dated 2003)

How the values were obtained:
[1] = biological target: T1, 15-Lox-2 (second type of human 15S-lipoxygenase) (Homo sapiens, UniProt O15296, Q656R); test: Lipoxygenase metabolism of 14C substrates by the new 15S-lipoxygenase expressed in HEK 293 cells, HPLC analysis; format: biochemical; conditions: 2 mM added; [14C]arachidonic acid as substrate
T1 construct: Initially, five full length clones were expressed in HEK 293 cells; expressed in transfected cells; host or cells: HEK 293 cells, transient transfection (pCDNA3 or pCR3); sonicated cells incubated with substrate
T1 sequence (O15296 1-676 Q656R): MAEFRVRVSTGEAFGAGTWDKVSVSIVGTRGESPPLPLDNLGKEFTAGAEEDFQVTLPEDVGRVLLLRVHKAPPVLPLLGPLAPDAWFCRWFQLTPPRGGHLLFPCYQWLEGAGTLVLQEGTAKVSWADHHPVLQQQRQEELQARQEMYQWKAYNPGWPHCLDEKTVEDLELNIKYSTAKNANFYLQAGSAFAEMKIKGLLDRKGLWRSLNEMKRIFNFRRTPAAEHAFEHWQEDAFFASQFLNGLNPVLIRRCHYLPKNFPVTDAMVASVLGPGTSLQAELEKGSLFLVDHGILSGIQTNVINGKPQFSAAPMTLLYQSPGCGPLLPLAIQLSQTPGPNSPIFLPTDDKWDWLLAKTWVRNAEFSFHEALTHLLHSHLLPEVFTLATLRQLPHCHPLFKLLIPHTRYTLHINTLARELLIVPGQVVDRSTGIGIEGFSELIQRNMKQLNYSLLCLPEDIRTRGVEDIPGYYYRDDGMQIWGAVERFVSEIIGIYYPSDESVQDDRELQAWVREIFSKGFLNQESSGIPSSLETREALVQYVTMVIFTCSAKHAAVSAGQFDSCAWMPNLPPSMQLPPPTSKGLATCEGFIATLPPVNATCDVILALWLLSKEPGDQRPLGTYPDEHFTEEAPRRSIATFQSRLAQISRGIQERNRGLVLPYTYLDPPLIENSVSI
Description: (§1) The PCR products corresponding to the open reading frame of the cDNA were subcloned into the pCDNA3 vector (Invitrogen), or in some experiments ligated directly into pCR3 (Invitrogen), and expressed by transient transfection in human embryonic kidney (HEK) 293 cells as described (Funk et al. (1996) J. Biol. Chem. 271, 23338-23344).

[2] = test system: peroxisome proliferator-activated receptor, PPAR-a; conditions: cited from earlier work
[3] = test system: 8S-lipoxygenase expression in mouse skin; test: Effect of topical phorbol ester on 8S-lipoxygenase expression in mouse skin (activity assay, Northern, Western, immunohistochemistry); format: in vivo; conditions: for induction of 8S-lipoxygenase in skin: black Swiss mixed breed (outbred) pups, dorsal skin, topical
Method: FIG. 9A: Normal-phase HPLC analysis of 8S-lipoxygenase activity in homogenates of back skin of 7-8-day-old black Swiss pups following 24 hr treatment with vehicle (acetone) or phorbol ester ([…]).
Phorbol ester (PMA, 10 nmol) dissolved in […] of acetone was applied topically onto dorsal skin of 6-7-day-old mice. At 21-24 h after PMA-treatment, the mice were euthanized, and epidermis was prepared from the frozen dorsal skin as previously described (Hughes et al. (1991) Biochim. Biophys. Acta 1081:347-354). The frozen epidermis was dropped into guanidinium thiocyanate solution, the lysis buffer from the RNeasy RNA extraction kit (QIAGEN). After a brief sonication using an ultrasonic probe (2 sec, twice), total RNA was extracted according to the manufacturer's instructions. Approximately […] of total RNA was recovered in […] of water. Twenty microliter aliquots were used in […] reactions for first strand cDNA synthesis using an oligo-dT-adaptor primer (Brash et al. (1996) J. Biol. Chem. 271:20949-20957). One microliter aliquots of CDNA were used directly in PCR reactions.
Poly(A)+RNA was prepared from PMA- or acetone-treated frozen dorsal skin using TRI REAGENT® (Molecular Research Center, Inc.) and Oligotex™ (Qiagen) according to the manufacturers' instructions. The poly(A)^+ RNA was electrophoresed in 1% agarose/formaldehyde gel and blotted to a Hybond-H^+ nylon membrane (Amersham). The membrane was hybridized with ^32P-labeled DNA probe (complementary with a 0.6-kb EcoRV/BamHI fragment of mouse epidermal 8S-lipoxygenase) prepared using the Multiprime DNA labeling kit and Rapid-hybridization buffer (Amersham), and then washed according to the manufacturer's specifications. Blots were exposed to Fuji x-ray film at −80° C. Mouse cyclophilin cDNA was used as a house-keeping gene to access loading of RNA.
After quantitation by Bradford assay (Bio-Rad), protein was separated by SDS polyacrylamide gel electrophoresis (SDS-PAGE) and then transferred electrophoretically to Hybond ECL nitrocellulose membranes (Amersham). These were probed using a rabbit polyclonal antibody raised against the human 15-Lox-2. This antibody recognises 15-Lox-2 and the mouse 8S-lipoxygenase, but not the human reticulocyte type of 15S-lipoxygenase, as more fully described below. Donkey anti-rabbit Ig linked with horseradish peroxidase (Amersham) was the secondary antibody. Specifically bound protein was detected by chemiluminescence using the ECL Western blotting detection reagents (Amersham).
The dorsal and tail skin of six to seven (6-7)-day-old mice were treated with acetone or PMA (10 nmol for dorsal skin, 2 nmol for tail skin). After 24 h, the animals were euthanized and the dorsal and tail skin were washed with soap and then rinsed thoroughly with water. […]

[4] = biological target: T2, blood cell 15S-lipoxygenase (15-Lox-1) (Homo sapiens, UniProt P16050); test: Lipoxygenase metabolism of 14C substrates by the blood cell 15S-lipoxygenase analysed in the same experiments; format: biochemical; conditions: applicants' experiments
T2 construct: expressed in transfected cells
T2 sequence (P16050 1-662): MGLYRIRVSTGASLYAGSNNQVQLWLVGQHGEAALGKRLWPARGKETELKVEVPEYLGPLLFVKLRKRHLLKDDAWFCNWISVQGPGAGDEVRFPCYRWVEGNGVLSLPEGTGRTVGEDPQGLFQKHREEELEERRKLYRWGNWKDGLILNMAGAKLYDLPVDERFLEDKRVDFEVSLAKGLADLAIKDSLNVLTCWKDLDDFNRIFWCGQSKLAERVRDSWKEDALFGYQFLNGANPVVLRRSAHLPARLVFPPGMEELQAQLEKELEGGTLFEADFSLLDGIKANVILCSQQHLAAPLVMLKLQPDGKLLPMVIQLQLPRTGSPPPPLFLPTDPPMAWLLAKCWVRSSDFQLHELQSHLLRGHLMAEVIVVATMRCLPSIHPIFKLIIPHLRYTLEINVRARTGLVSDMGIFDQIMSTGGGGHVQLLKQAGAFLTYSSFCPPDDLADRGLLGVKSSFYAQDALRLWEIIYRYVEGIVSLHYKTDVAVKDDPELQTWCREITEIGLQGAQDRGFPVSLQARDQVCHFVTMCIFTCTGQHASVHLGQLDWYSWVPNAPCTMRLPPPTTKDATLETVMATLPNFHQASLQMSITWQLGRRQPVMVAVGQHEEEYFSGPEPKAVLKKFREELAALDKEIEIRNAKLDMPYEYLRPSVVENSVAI
Description: as §1

[5] = biological target: T3, mouse 8S-lipoxygenase (8-Lox) (Mus musculus, UniProt O35936); format: biochemical
T3 sequence (O35936 1-677): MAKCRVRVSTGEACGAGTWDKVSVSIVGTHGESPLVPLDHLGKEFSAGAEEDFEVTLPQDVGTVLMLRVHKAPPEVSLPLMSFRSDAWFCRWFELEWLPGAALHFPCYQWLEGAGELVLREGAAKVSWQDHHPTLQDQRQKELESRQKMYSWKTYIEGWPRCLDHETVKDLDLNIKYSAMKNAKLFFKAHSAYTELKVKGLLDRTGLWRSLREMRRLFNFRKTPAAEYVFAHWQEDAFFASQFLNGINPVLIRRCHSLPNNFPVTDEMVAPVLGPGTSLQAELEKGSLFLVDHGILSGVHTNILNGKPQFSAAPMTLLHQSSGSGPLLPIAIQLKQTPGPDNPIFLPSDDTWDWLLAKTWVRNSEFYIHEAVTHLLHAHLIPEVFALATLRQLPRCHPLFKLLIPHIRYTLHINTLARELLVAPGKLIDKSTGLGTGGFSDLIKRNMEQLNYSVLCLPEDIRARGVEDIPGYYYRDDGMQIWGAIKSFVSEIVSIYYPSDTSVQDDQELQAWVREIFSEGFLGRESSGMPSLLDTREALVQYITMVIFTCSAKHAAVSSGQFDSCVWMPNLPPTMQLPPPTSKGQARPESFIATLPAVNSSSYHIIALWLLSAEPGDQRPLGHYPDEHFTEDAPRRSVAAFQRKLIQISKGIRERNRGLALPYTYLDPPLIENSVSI

For `Nc1ncnc2c1ncn2[C@@H]1O[C@H](COP(=O)(O)OP(=O)(O)OP(=O)(O)O)[C@@H](O)[C@H]1O` [ATP], the “effect of addition to the incubation media on enzymatic activity” value [1] was “no significant effect”.

With `[Ca+2]` [calcium] the “effect of addition to the incubation media on enzymatic activity” value [1] was “no significant effect”.

For `CCCCC/C=C\C/C=C\C=C\[C@@H](O)C/C=C\CCCC(=O)O` [8S-HETE], the “activity at PPAR-a” value [2] is listed as “strong activator”.

With `CCCCCCCCCCCCCC(=O)O[C@@H]1[C@@H](C)[C@@]2(O)[C@@H](C=C(CO)C[C@]3(O)C(=O)C(C)=C[C@@H]23)[C@@H]2C(C)(C)[C@]12OC(C)=O` [PMA, Phorbol-12-myristate-13-acetate] the “induction of 8S-lipoxygenase activity in skin” value ([3]; Sencar strain, 6-10-day-old pups, high constitutive activity) was “little extra induction”, the “induction of 8S-lipoxygenase in skin” value ([3]; 24 h) was “strongly induced” and the “induction of 8S-lipoxygenase in skin” value ([3]; 24 h, listed as phorbol ester) was “strong induction”. The “histological response of skin (epidermis)” value ([3]; black Swiss, dorsal and tail skin, topical in acetone, 24 h) was “marked hyperproliferative response”.

In the case of `CCCCC/C=C\C/C=C\CCCCCCCC(=O)O` [linoleic acid], the “extent of metabolism compared with arachidonic acid” value [4] is reported as “metabolized more extensively than arachidonic acid” and the “product formed from the substrate” value [5] is reported as “exclusively to 9S-HODE”.

For `CCCCC/C=C\C/C=C\C/C=C\C/C=C\CCCC(=O)O` [arachidonic acid], the “added arachidonic acid converted to 8S-HPETE” value [5] was 30-40% and the “product formed from the substrate” value [5] was “exclusively to 8S-hydroperoxyeicosatetraenoic acid”.
